Laboratory results published in ChEMBL document CHEMBL3885861, “Open TG-GATES”.

Species: Rattus norvegicus
Assay: Open TG-GATES - Regimen: Single
Format: toxicity, organism-based, Sprague-Dawley
Design: regimen Single, gender Male, age 6 weeks
Conditions: in vivo, po, route gavage; for APTT / Bas / Eos / Fbg / Hb / Ht / Lym / MCHC / MCV / Mono / Neu / PT / Plat / RBC / Ret / WBC: tissue Blood; for KIDNEY_L / KIDNEY_R / KIDNEY_TOTAL: tissue Kidney; for LIVER: tissue Liver; for ALP / ALT / AST / BUN / CRE / Ca / Cl / DBIL / GLC / IP / K / LDH / Na / PL / RALB / TBIL / TC / TG / TP / gamma-GTP: tissue Plasma
[1] = 100 mg/kg, 3 h, dose level Middle
[2] = 100 mg/kg, 6 h, dose level Middle
[3] = 100 mg/kg, 9 h, dose level Middle
[4] = 100 mg/kg, 24 h, dose level Middle
[5] = 300 mg/kg, 3 h, dose level High
[6] = 300 mg/kg, 6 h, dose level High
[7] = 300 mg/kg, 9 h, dose level High
[8] = 300 mg/kg, 24 h, dose level High

CS(=O)(=O)Nc1ccc([N+](=O)[O-])cc1Oc1ccccc1 [NIMESULIDE]
TERMINAL_BW [1]: 203.6 g
APTT [1]: 16.7 s
Bas [1]: 0%
Eos [1]: 1.2%
Fbg [1]: 201.6 mg/dL
Hb [1]: 13.1 g/dL
Ht [1]: 38.3%
Lym [1]: 71.4%
MCHC [1]: 34.3%
MCV [1]: 65.8 fL
Mono [1]: 8.2%
Neu [1]: 19.2%
PT [1]: 12.2 s
Plat [1]: 110 x10_4/uL
RBC [1]: 582.2 x10_4/ul
Ret [1]: 11.3%
WBC [1]: 87.9 x10_2/uL
KIDNEY_L [1]: 0.9 g
KIDNEY_R [1]: 0.9 g
KIDNEY_TOTAL [1]: 1.8 g
LIVER [1]: 9.5 g
ALP [1]: 901.6 IU/L
ALT [1]: 36.2 IU/L
AST [1]: 66.6 IU/L
BUN [1]: 14 mg/dL
CRE [1]: 0.6 mg/dL
Ca [1]: 11 mg/dL
Cl [1]: 105.8 meq/L
DBIL [1]: 0.06 mg/dL
GLC [1]: 233.2 mg/dL
IP [1]: 9.6 mg/dL
K [1]: 5 meq/L
LDH [1]: 93.8 IU/L
Na [1]: 140.2 meq/L
PL [1]: 145.4 mg/dL
RALB [1]: 3.9 g/dL
TBIL [1]: 0.4 mg/dL
TC [1]: 85.2 mg/dL
TG [1]: 54.8 mg/dL
TP [1]: 5.2 g/dL
gamma-GTP [1]: 1 IU/L
TERMINAL_BW [2]: 202.6 g
APTT [2]: 18.2 s
Bas [2]: 0%
Eos [2]: 1%
Fbg [2]: 211.2 mg/dL
Hb [2]: 13.2 g/dL
Ht [2]: 39.2%
Lym [2]: 73.2%
MCHC [2]: 33.6%
MCV [2]: 65.7 fL
Mono [2]: 4.4%
Neu [2]: 21.8%
PT [2]: 12.4 s
Plat [2]: 119.2 x10_4/uL
RBC [2]: 596.6 x10_4/ul
Ret [2]: 9%
WBC [2]: 69.4 x10_2/uL
KIDNEY_L [2]: 0.9 g
KIDNEY_R [2]: 1 g
KIDNEY_TOTAL [2]: 1.9 g
LIVER [2]: 8.6 g
ALP [2]: 733.2 IU/L
ALT [2]: 36.4 IU/L
AST [2]: 67.2 IU/L
BUN [2]: 14.8 mg/dL
CRE [2]: 0.7 mg/dL
Ca [2]: 10.5 mg/dL
Cl [2]: 103.4 meq/L
DBIL [2]: 0.072 mg/dL
GLC [2]: 258 mg/dL
IP [2]: 10.4 mg/dL
K [2]: 4.3 meq/L
LDH [2]: 79.6 IU/L
Na [2]: 139.8 meq/L
PL [2]: 132.8 mg/dL
RALB [2]: 3.7 g/dL
TBIL [2]: 0.5 mg/dL
TC [2]: 79.8 mg/dL
TG [2]: 28 mg/dL
TP [2]: 5.3 g/dL
gamma-GTP [2]: 1.6 IU/L
TERMINAL_BW [3]: 194.5 g
APTT [3]: 19.5 s
Bas [3]: 0%
Eos [3]: 0.6%
Fbg [3]: 214.8 mg/dL
Hb [3]: 13.6 g/dL
Ht [3]: 40.6%
Lym [3]: 79.2%
MCHC [3]: 33.5%
MCV [3]: 65.2 fL
Mono [3]: 6%
Neu [3]: 14.4%
PT [3]: 12.5 s
Plat [3]: 117.1 x10_4/uL
RBC [3]: 621.8 x10_4/ul
Ret [3]: 11.2%
WBC [3]: 80.5 x10_2/uL
KIDNEY_L [3]: 0.9 g
KIDNEY_R [3]: 0.9 g
KIDNEY_TOTAL [3]: 1.8 g
LIVER [3]: 7.9 g
ALP [3]: 917.4 IU/L
ALT [3]: 32.8 IU/L
AST [3]: 62.4 IU/L
BUN [3]: 12.6 mg/dL
CRE [3]: 0.6 mg/dL
Ca [3]: 10.6 mg/dL
Cl [3]: 107.2 meq/L
DBIL [3]: 0.018 mg/dL
GLC [3]: 234 mg/dL
IP [3]: 9.5 mg/dL
K [3]: 5 meq/L
LDH [3]: 72 IU/L
Na [3]: 138.2 meq/L
PL [3]: 137.8 mg/dL
RALB [3]: 4 g/dL
TBIL [3]: 0.4 mg/dL
TC [3]: 77.8 mg/dL
TG [3]: 28.6 mg/dL
TP [3]: 5.4 g/dL
gamma-GTP [3]: 1 IU/L
TERMINAL_BW [4]: 205.9 g
APTT [4]: 17.2 s
Bas [4]: 0%
Eos [4]: 1%
Fbg [4]: 216.6 mg/dL
Hb [4]: 13.8 g/dL
Ht [4]: 40.7%
Lym [4]: 69%
MCHC [4]: 33.7%
MCV [4]: 64.1 fL
Mono [4]: 6.8%
Neu [4]: 23.4%
PT [4]: 12 s
Plat [4]: 116.2 x10_4/uL
RBC [4]: 636.2 x10_4/ul
Ret [4]: 10%
WBC [4]: 104.6 x10_2/uL
KIDNEY_L [4]: 0.9 g
KIDNEY_R [4]: 0.9 g
KIDNEY_TOTAL [4]: 1.9 g
LIVER [4]: 10.2 g
ALP [4]: 976.6 IU/L
ALT [4]: 37.2 IU/L
AST [4]: 66.8 IU/L
BUN [4]: 20.8 mg/dL
CRE [4]: 0.6 mg/dL
Ca [4]: 10.7 mg/dL
Cl [4]: 106.6 meq/L
DBIL [4]: 0.024 mg/dL
GLC [4]: 185.6 mg/dL
IP [4]: 6.6 mg/dL
K [4]: 4.9 meq/L
LDH [4]: 105.6 IU/L
Na [4]: 140.4 meq/L
PL [4]: 148 mg/dL
RALB [4]: 3.9 g/dL
TBIL [4]: 0.3 mg/dL
TC [4]: 81.6 mg/dL
TG [4]: 110.6 mg/dL
TP [4]: 5.4 g/dL
gamma-GTP [4]: 1.8 IU/L
TERMINAL_BW [5]: 200.7 g
APTT [5]: 21.2 s
Bas [5]: 0%
Eos [5]: 1.4%
Fbg [5]: 206.8 mg/dL
Hb [5]: 13 g/dL
Ht [5]: 38.1%
Lym [5]: 69.4%
MCHC [5]: 34.1%
MCV [5]: 65.4 fL
Mono [5]: 6%
Neu [5]: 23.6%
PT [5]: 12.4 s
Plat [5]: 109.9 x10_4/uL
RBC [5]: 582.6 x10_4/ul
Ret [5]: 11.4%
WBC [5]: 70.5 x10_2/uL
KIDNEY_L [5]: 0.9 g
KIDNEY_R [5]: 0.9 g
KIDNEY_TOTAL [5]: 1.8 g
LIVER [5]: 8.9 g
ALP [5]: 841.8 IU/L
ALT [5]: 35.8 IU/L
AST [5]: 62.8 IU/L
BUN [5]: 21.4 mg/dL
CRE [5]: 0.6 mg/dL
Ca [5]: 10.7 mg/dL
Cl [5]: 102.8 meq/L
DBIL [5]: 0.046 mg/dL
GLC [5]: 313.4 mg/dL
IP [5]: 9.9 mg/dL
K [5]: 4.9 meq/L
LDH [5]: 88.4 IU/L
Na [5]: 138 meq/L
PL [5]: 137.4 mg/dL
RALB [5]: 3.8 g/dL
TBIL [5]: 0.4 mg/dL
TC [5]: 81.2 mg/dL
TG [5]: 49.6 mg/dL
TP [5]: 5.1 g/dL
gamma-GTP [5]: 1 IU/L
TERMINAL_BW [6]: 196.2 g
APTT [6]: 19.9 s
Bas [6]: 0%
Eos [6]: 0.8%
Fbg [6]: 207.8 mg/dL
Hb [6]: 13 g/dL
Ht [6]: 39%
Lym [6]: 68.4%
MCHC [6]: 33.2%
MCV [6]: 64.4 fL
Mono [6]: 2.6%
Neu [6]: 28.6%
PT [6]: 12.5 s
Plat [6]: 110.2 x10_4/uL
RBC [6]: 605.8 x10_4/ul
Ret [6]: 9.2%
WBC [6]: 44 x10_2/uL
KIDNEY_L [6]: 0.8 g
KIDNEY_R [6]: 0.9 g
KIDNEY_TOTAL [6]: 1.7 g
LIVER [6]: 8.1 g
ALP [6]: 978 IU/L
ALT [6]: 30.6 IU/L
AST [6]: 61.6 IU/L
BUN [6]: 19.4 mg/dL
CRE [6]: 0.7 mg/dL
Ca [6]: 10.4 mg/dL
Cl [6]: 101.6 meq/L
DBIL [6]: 0.028 mg/dL
GLC [6]: 360 mg/dL
IP [6]: 10.7 mg/dL
K [6]: 4.5 meq/L
LDH [6]: 83.4 IU/L
Na [6]: 135.4 meq/L
PL [6]: 135 mg/dL
RALB [6]: 3.8 g/dL
TBIL [6]: 0.4 mg/dL
TC [6]: 80.4 mg/dL
TG [6]: 27 mg/dL
TP [6]: 5.3 g/dL
gamma-GTP [6]: 1 IU/L
TERMINAL_BW [7]: 192.8 g
APTT [7]: 19 s
Bas [7]: 0%
Eos [7]: 0%
Fbg [7]: 208.8 mg/dL
Hb [7]: 13.2 g/dL
Ht [7]: 39.2%
Lym [7]: 74.5%
MCHC [7]: 33.8%
MCV [7]: 65 fL
Mono [7]: 4.5%
Neu [7]: 20.8%
PT [7]: 12.8 s
Plat [7]: 108.6 x10_4/uL
RBC [7]: 603.2 x10_4/ul
Ret [7]: 10.1%
WBC [7]: 54.5 x10_2/uL
KIDNEY_L [7]: 0.8 g
KIDNEY_R [7]: 0.9 g
KIDNEY_TOTAL [7]: 1.7 g
LIVER [7]: 7.3 g
ALP [7]: 850.5 IU/L
ALT [7]: 26.8 IU/L
AST [7]: 59.8 IU/L
BUN [7]: 17.8 mg/dL
CRE [7]: 0.7 mg/dL
Ca [7]: 10.4 mg/dL
Cl [7]: 102.2 meq/L
DBIL [7]: 0.0125 mg/dL
GLC [7]: 323.5 mg/dL
IP [7]: 9.2 mg/dL
K [7]: 4.8 meq/L
LDH [7]: 121.2 IU/L
Na [7]: 133.5 meq/L
PL [7]: 128.2 mg/dL
RALB [7]: 4 g/dL
TBIL [7]: 0.4 mg/dL
TC [7]: 76.5 mg/dL
TG [7]: 14.2 mg/dL
TP [7]: 5.3 g/dL
gamma-GTP [7]: 1.8 IU/L
TERMINAL_BW [8]: 182.2 g
APTT [8]: 18.9 s
Bas [8]: 0%
Eos [8]: 1%
Fbg [8]: 187 mg/dL
Hb [8]: 13.7 g/dL
Ht [8]: 40.7%
Lym [8]: 61.2%
MCHC [8]: 33.7%
MCV [8]: 63.7 fL
Mono [8]: 9.8%
Neu [8]: 28.2%
PT [8]: 12.7 s
Plat [8]: 126.6 x10_4/uL
RBC [8]: 639.4 x10_4/ul
Ret [8]: 9.5%
WBC [8]: 117.8 x10_2/uL
KIDNEY_L [8]: 0.9 g
KIDNEY_R [8]: 0.9 g
KIDNEY_TOTAL [8]: 1.9 g
LIVER [8]: 8.1 g
ALP [8]: 783.2 IU/L
ALT [8]: 27.2 IU/L
AST [8]: 64.8 IU/L
BUN [8]: 22.8 mg/dL
CRE [8]: 0.8 mg/dL
Ca [8]: 9.9 mg/dL
Cl [8]: 108 meq/L
DBIL [8]: 0.032 mg/dL
GLC [8]: 209 mg/dL
IP [8]: 7.3 mg/dL
K [8]: 4.6 meq/L
LDH [8]: 99.6 IU/L
Na [8]: 139.6 meq/L
PL [8]: 110.4 mg/dL
RALB [8]: 3.9 g/dL
TBIL [8]: 0.4 mg/dL
TC [8]: 55.4 mg/dL
TG [8]: 41.2 mg/dL
TP [8]: 5.2 g/dL
gamma-GTP [8]: 1.8 IU/L
